Tests used:
Mer = molecular target: T1, Mer (Homo sapiens, UniProt Q12866); assay: LanthaScreen Eu kinase binding assay, Mer; settings: Tracer 236
T1 construct: purchased Life Technologies
T1 sequence (Q12866 21-999): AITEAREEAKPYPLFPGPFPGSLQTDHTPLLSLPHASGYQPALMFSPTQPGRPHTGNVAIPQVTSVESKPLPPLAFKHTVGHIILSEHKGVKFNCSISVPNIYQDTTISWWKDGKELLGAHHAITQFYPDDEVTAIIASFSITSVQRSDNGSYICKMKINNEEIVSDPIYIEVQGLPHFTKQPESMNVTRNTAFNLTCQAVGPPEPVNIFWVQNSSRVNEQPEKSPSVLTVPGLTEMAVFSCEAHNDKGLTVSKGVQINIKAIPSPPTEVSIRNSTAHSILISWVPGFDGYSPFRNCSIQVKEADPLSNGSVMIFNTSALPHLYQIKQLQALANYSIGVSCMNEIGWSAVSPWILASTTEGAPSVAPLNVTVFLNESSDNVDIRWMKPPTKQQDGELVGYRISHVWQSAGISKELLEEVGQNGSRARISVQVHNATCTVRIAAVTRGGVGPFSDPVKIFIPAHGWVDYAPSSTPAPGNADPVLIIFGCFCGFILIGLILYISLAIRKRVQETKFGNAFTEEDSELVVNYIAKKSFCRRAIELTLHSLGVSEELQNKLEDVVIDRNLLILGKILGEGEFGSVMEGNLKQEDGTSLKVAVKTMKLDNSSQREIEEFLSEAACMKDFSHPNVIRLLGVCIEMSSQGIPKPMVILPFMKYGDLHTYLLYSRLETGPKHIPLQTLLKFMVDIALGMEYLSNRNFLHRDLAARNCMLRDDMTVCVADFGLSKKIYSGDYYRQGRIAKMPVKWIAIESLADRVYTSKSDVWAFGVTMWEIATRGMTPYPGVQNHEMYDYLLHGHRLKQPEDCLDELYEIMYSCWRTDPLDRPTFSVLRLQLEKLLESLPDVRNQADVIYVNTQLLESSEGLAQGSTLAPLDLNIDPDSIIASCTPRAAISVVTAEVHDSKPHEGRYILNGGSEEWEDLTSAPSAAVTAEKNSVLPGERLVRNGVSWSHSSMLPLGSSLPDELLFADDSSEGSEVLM

Met = molecular target: T2, Met (Homo sapiens, UniProt P08581); assay: LanthaScreen Eu kinase binding assay, Met; settings: Tracer 236, read-out: cMet kinase binding activity (Kd)
T2 construct: purchased Life Technologies

[1] = test system: Axl phosphorylation in transiently transfected HEK293T cells; assay: Cellular Axl phosphorylation assay; format: cell-based; settings: Homo sapiens, HEK-293T; HEK293T cells transfected with Axl, 1 hour compound treatment, Phospho-Axl vs Total-Axl
From the text: Cell AXL Inhibition Assay Principle
The assay is based on the measurement of the relative amounts of Total-Axl and Phosphorylated-Axl in whole cell lysates of transiently transfected HEK293T cells. This assay is based on application of the Mesoscale western blot and subsequent electro-chemiluminescence detection. Overexpression of Axl-RTK (Receptor tyrosine kinase) by transfection leads to an increase in Axl-trans-autophosphorylation events. Upon compound treatment, the correlation of the measured values of Phosphorylated-Axl and Total Axl indicate the potential of the tested compound to inhibit Axl-phosphorylation at the given compound concentration.
Cell AXL Inhibition Assay Protocol
HEK293T cells (2.5×10^4/well) were plated in a 96 well plate and cells were transfected with pcDNA_DEST_40 Axl or pcDNA_DEST_40 by Superfact reagent (Qiagen. Co. Ltd.). After overnight, the transfection reagent of each well was removed from cells and replaced by fresh prewarmed medium. On the following day, cells were treated with the respective test compound which was diluted by the same method, as in the Axl binding assay using DMSO, for 1 hour
After incubation with the test compounds, cells in the well of the plate were lysed using Tris lysis buffer. The lysate was transferred to two plates (total-Axl and phosphor-Axl) Mesoscale high bind plates and incubated for two hours at room temperature. Afterwards the lysates were removed from the plates and the plates were blocked using Blocking buffer. Subsequently Total-Axl antibody (H-124, Santa Cruz) was transferred to one Mesoscale high bind plate, and Phospho-Axl antibody (AF2228, R&D) to the other plate. After 1 h incubation, Sulpho-Tag antibody (goat anti-rabbit, Mesoscale) was added and again incubated for 1 hour. For the measurement, 2×MSD read buffer was added to each well and the plates were analyzed with a Mesoscale Sector Imager 2400. IC50 (half the maximal inhibitory concentration) was determined relative to between the vehicle (DMSO) control group and minimum control group as transfection of the control vector (pcDNA_DEST_40).
The results after this assay are shown in table 3 for selected compounds.

TYRO3 = molecular target: T3, TYRO3 (Homo sapiens, UniProt Q06418); assay: LanthaScreen Eu kinase binding assay, TYRO3; settings: Tracer 236
T3 construct: purchased Life Technologies
T3 sequence (Q06418 41-890): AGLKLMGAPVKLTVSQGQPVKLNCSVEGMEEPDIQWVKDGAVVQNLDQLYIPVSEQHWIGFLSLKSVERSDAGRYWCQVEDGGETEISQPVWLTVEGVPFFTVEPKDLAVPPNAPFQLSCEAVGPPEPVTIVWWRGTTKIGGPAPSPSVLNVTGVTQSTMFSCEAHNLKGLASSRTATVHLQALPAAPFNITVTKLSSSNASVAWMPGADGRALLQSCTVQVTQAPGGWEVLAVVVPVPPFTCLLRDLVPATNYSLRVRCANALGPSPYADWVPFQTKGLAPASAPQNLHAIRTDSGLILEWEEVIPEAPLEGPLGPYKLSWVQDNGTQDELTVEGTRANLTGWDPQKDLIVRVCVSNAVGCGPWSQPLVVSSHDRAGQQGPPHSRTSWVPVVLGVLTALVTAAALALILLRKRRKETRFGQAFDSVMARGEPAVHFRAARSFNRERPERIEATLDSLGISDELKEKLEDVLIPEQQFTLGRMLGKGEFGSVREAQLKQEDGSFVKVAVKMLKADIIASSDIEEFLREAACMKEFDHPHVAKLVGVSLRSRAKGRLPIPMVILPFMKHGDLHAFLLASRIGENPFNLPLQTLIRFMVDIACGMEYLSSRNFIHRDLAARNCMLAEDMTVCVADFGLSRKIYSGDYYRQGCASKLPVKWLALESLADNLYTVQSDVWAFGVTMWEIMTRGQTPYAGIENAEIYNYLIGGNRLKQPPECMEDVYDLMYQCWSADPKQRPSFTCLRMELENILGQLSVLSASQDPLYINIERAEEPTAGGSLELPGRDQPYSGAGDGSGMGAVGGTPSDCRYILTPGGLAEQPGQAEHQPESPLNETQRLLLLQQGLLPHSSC

Axl = molecular target: T4, Axl (Homo sapiens, UniProt P30530); assay: LanthaScreen Eu kinase binding assay, Axl; settings: Tracer 236
T4 construct: purchased Life Technologies
T4 sequence (P30530 26-894): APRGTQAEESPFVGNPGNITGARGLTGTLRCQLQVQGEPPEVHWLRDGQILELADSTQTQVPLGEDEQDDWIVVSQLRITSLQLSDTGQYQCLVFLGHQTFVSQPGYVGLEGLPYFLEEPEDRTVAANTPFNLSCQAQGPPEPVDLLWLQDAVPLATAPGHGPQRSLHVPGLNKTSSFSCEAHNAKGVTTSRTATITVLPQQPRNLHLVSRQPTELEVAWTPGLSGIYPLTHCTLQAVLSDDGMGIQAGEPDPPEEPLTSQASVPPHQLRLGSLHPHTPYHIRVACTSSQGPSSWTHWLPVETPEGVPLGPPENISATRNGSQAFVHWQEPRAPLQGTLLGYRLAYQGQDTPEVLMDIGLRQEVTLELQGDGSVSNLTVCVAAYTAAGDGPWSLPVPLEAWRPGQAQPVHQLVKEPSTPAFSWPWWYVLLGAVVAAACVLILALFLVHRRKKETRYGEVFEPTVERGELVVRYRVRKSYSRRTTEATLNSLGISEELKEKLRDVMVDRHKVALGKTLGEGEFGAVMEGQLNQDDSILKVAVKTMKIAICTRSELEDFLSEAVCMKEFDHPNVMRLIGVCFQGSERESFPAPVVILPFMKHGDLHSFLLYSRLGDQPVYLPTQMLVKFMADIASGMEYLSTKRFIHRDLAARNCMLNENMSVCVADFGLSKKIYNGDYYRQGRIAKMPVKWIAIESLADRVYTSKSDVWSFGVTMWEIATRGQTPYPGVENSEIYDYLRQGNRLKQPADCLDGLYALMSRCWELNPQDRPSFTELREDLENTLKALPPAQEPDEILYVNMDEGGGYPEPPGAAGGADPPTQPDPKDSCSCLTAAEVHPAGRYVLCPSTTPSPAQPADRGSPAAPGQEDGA

T2 sequence (P08581 25-1390): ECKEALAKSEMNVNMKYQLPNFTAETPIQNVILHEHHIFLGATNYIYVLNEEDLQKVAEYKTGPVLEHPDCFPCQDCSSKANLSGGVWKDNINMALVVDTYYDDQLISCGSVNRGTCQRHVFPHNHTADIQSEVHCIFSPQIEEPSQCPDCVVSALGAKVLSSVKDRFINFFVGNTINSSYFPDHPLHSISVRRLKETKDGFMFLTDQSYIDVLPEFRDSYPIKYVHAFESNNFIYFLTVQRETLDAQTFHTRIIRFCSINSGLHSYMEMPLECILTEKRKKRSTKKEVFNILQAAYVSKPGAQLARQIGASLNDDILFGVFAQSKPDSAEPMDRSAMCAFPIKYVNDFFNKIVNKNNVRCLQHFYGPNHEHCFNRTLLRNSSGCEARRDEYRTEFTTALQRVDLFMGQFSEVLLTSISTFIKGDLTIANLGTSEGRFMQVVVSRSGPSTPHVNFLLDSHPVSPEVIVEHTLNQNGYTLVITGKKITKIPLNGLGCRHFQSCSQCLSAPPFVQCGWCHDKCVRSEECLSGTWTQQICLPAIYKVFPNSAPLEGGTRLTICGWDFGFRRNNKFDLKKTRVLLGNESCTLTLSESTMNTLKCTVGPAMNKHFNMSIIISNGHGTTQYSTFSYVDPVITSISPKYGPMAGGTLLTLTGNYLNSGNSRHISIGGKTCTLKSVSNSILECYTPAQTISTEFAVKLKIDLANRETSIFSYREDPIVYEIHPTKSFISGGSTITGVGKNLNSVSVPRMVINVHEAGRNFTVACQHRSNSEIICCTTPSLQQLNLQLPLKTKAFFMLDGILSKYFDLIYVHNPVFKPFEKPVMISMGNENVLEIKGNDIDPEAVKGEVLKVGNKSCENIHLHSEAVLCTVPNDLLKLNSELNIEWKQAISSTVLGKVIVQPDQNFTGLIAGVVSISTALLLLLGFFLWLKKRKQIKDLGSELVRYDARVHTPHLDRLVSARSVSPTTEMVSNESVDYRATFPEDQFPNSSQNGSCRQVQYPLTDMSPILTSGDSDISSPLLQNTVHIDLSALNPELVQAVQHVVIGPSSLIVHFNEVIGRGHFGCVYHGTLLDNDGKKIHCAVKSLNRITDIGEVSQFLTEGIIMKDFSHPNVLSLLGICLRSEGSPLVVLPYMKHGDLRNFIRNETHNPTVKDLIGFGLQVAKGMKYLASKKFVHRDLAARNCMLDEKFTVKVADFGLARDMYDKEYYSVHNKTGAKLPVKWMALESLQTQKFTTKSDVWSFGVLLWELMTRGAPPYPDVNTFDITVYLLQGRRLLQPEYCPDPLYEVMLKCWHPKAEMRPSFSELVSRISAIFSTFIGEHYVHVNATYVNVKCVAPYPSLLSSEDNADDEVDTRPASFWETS

Row | Kd (Mer) [nM] | Kd (Met) [nM] | Kd (TYRO3) [nM] | Kd (Axl) [nM] | SMILES | IC50 [1] [nM]
1 | < 100 | < 100 | < 100 |  | C=C(C)c1ccncc1-n1cc(OCC)c(C(=O)Nc2ccc(Oc3ccnc4cc(OC)c(OC)cc34)cn2)n1 [Compound 202] | < 100
2 | < 100 | < 100 | < 100 | < 100 | COc1cc2nccc(Oc3ccc(NC(=O)c4nn(-c5ccc(F)c(C(C)=O)c5)cc4OCC(F)(F)F)nc3)c2cc1OC [Compound 280] | 

— US10934274B2, “Quinoline derivatives as TAM RTK inhibitors” (Qurient Co., Ltd., priority 2015, dated 2021)
